Laboratory results as given in patent US6692745B2, “Compositions and methods for inhibition of HIV-1 infection” (priority 2000, dated 2004).

How the values were obtained:
[1] = test system: HIV-1 envelope-mediated fusion between HeLa-EnvJR-FL and PM1 cells
Procedure: HIV-1 envelope-mediated fusion between HeLa-EnvJR-FL and PM1 cells was detected using a Resonance Energy Transfer (RET) assay.
HIV-1 inhibition data were analyzed according to the Combination Index method of Chou and Talay.
Equation (1) is a generalized form of the equations describing Michaelis-Menton enzyme kinetics, Langmuir adsorption isotherms, and Henderson-Hasselbalch ionization equilibria, for which m=1 in all cases. In the present case, K is equal to the IC50 value. K and m are determined by curve-fitting the dose-response curves.
After the best-fit parameters for K and m are obtained for the experimental agents and their combination, Equation (1) is rearranged to allow for calculation of c for a given f.
All concentrations are those required to achieve a given degree of inhibition. Equation (2) is used when the molecules are mutually nonexclusive, i.e., have different sites of action. Since this is the likely scenario for inhibitors of HIV-1 attachment and gp41 fusion intermediates, Equation (2) was used for all Combination Index calculations. Mutually nonexclusive calculations provide a more conservative estimate of the degree of synergy that mutually exclusive calculations, for which the c1mc2m/c1c2 term is dropped. CI<1 indicates synergy, CI=1 indicates purely additive effects, and CI>1 indicates antagonism. In general, CI values are most relevant at the higher levels of inhibition that are required to achieve a measurable clinical benefit.

HIV = settings: Phase I/II; cited from earlier work

enfuvirtide
concentration of the individual agent contained in the combination giving 95% inhibition ([1]; 25:1 CD4-IgG2:T-20 mass ratio, calculated from known mass ratio): 0.044 µg/mL
Dose Reduction (ratio of inhibitor concentration alone v. in synergistic combination) ([1]; 95% inhibition, 25:1 CD4-IgG2:T-20 mass ratio): 5 fold
K, concentration of agent required to produce the median effect (equal to the IC50 value) ([1]; HeLa-EnvJR-FL and PM1 cells, RET after 4 h, mean of three independent experiments, best-fit to median effect equation, FIG. 1): 0.017 µg/mL
concentration required for inhibition of viral entry by 95% ([1]; agent used alone, or total concentration of the 25:1 combination, calculated from fitted K and m, FIG. 3): 0.21 µg/mL
reduction of plasma HIV RNA levels (HIV): ≤ 2 logs
